# In US10039753B2, “Imidazo[4,5-c]quinoline and imidazo[4,5-c][1,5]naphthyridine derivatives as LRRK2 inhibitors” (Pfizer Inc., priority 2015, dated 2018):
# Structures can show the parent of a compound that is named as a salt.
# Experiments:
# [1] = molecular target: T1, GST-tagged truncated LRRK2 (Homo sapiens, UniProt Q5S007); test: LRRK2 Assay, Format 1 (Lantha Screen), WT; format: biochemical
# T1 construct: GST-tagged truncated LRRK2 from Invitrogen (Cat # PV4874); GST; purchased Invitrogen PV4874
# Experimental: LRRK2 kinase activity was measured using Lantha Screen technology from Invitrogen. GST-tagged truncated LRRK2 from Invitrogen (Cat # PV4874) was incubated with a fluorescein-labeled peptide substrate based upon ezrin/radixin/moesin (ERM), also known as LRRKtide (Invitrogen cat # PR8976A), in the presence of a dose response of compound. Upon completion, the assay was stopped and detected with a terbium labeled anti-phospho-ERM antibody (Invitrogen, cat # PR8975A). […] Aliquots (3.5 μL) of the 100% DMSO dose response were mixed with 46.5 μL water then 1 μL of this mixture was added to the 3 μL substrate mix in the 384-well plate. The kinase reaction was started with 3 μL of a working solution of LRRK2 enzyme at a concentration of 4 μg/mL. […] The reaction was allowed to progress at room temperature for two hours and then stopped with the addition of 7 μL of detection buffer (20 mM Tris pH 7.6, 0.01% NP-40, 0.02% NaN3, 6 mM EDTA with 2 nM terbium labeled anti-phospho-ERM).
# [2] = molecular target: mutant G2019S LRRK2 (Homo sapiens, UniProt Q5S007, G2019S); test: LRRK2 Assay, Format 1 (Lantha Screen), G2019S mutant
# Text: All final concentrations of substrate ATP and enzyme were the same.
# [3] = Format 1, wild-type LRRK2, geometric mean of 2-4 determinations unless footnoted (a: ≥5 determinations; b: single determination; c: determined on trifluoroacetate salt)
# [4] = 100 nM LRRKtide, 50 μM ATP, 1.7 μg/mL LRRK2 enzyme, two hours at room temperature
# T1 sequence (Q5S007 970-2527 limits assumed): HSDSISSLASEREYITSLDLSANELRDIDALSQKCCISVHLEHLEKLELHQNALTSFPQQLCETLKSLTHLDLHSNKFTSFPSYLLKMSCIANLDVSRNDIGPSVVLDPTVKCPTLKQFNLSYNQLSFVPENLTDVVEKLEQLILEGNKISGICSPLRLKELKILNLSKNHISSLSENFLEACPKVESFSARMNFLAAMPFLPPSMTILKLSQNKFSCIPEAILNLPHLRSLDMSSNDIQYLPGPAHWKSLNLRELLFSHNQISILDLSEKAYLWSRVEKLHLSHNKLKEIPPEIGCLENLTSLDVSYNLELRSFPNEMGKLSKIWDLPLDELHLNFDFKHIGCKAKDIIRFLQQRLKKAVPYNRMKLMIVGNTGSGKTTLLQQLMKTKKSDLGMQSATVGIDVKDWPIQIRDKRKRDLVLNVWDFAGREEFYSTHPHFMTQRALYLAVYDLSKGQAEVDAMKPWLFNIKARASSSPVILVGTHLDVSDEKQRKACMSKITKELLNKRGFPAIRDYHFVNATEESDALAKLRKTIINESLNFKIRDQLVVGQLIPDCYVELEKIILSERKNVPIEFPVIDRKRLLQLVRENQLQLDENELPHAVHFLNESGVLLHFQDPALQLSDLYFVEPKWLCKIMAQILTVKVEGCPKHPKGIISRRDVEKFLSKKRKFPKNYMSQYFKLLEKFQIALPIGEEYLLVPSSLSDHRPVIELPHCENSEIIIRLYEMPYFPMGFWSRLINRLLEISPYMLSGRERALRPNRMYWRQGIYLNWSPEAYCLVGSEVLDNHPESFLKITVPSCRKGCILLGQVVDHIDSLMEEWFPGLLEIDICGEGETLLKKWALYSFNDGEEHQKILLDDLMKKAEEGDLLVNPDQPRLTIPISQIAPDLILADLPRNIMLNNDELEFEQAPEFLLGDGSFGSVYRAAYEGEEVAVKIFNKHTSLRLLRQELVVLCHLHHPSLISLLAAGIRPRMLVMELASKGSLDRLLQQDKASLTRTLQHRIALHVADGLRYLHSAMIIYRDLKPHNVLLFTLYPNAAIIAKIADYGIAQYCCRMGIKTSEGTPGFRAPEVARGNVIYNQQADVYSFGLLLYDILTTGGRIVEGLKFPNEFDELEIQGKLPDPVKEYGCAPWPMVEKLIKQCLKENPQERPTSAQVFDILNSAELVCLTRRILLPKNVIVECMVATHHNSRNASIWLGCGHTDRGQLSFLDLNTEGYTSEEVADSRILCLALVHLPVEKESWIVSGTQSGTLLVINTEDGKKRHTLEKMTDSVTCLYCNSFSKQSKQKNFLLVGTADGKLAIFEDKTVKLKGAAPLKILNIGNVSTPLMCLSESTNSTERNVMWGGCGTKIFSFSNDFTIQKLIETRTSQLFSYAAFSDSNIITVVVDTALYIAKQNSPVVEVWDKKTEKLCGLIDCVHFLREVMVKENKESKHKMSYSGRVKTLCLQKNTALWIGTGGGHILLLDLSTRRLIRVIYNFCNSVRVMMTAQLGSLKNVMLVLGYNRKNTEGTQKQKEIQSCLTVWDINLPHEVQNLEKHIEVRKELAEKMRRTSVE
# mutant G2019S LRRK2, sequence (Q5S007 970-2527 G2019S limits assumed): as the sequence (Q5S007 970-2527 limits assumed) above, with G1050S counted along it
Compound,"IC50 [1, 3]",IC50 [2],"IC50 [1, 4]"
"C[C@@H]1C[C@H](n2c(Cc3ncon3)nc3cnc4ccc(Cl)cc4c32)CCO1 [Example 13, 8-chloro-1-[(2R,4R)-2-methyltetrahydro-2H-pyran-4-yl]-2-(1,2,4-oxadiazol-3-ylmethyl)-1H-imidazo[4,5-c]quinoline]",10.3 nM,6.4 nM,–
"c1ccc2c(c1)ncc1nc(Cn3cncn3)n(C3CCOCC3)c12 [Example 30, 1-(tetrahydro-2H-pyran-4-yl)-2-(1H-1,2,4-triazol-1-ylmethyl)-1H-imidazo[4,5-c]quinoline]",120 nM,146 nM,–
"C[C@@H]1C[C@H](n2c(Cc3ccon3)nc3cnc4ccc(Br)cc4c32)CCO1 (single isomer, unassigned) [Example 12]",4.5 nM,2.4 nM,–
"FC(F)(F)c1cnn(Cc2nc3cnc4ccccc4c3n2C2CCOCC2)c1 [Example 43, 1-(tetrahydro-2H-pyran-4-yl)-2-{[4-(trifluoromethyl)-1H-pyrazol-1-yl]methyl}-1H-imidazo[4,5-c]quinoline]",119 nM,110 nM,–
"Cc1nc2cnc3ccc(C#N)cc3c2n1C1CCOCC1 [Example 14, 2-methyl-1-(tetrahydro-2H-pyran-4-yl)-1H-imidazo[4,5-c]quinoline-8-carbonitrile]",160 nM,191 nM,–
"COc1ccc2ncc3nc(Cc4ccon4)n([C@H]4CCO[C@@H](C)C4)c3c2c1 [enantiomer of Example 62, 8-methoxy-1-[(2S,4S)-2-methyltetrahydro-2H-pyran-4-yl]-2-(1,2-oxazol-3-ylmethyl)-1H-imidazo[4,5-c]quinoline]",–,508 nM,1710 nM
"COc1ccc2ncc3nc(Cc4cc(C)on4)n([C@@H]4CCO[C@H](C)C4)c3c2c1 (single isomer, unassigned) [Example 1]",39.3 nM,14.4 nM,–
"COc1ccc2ncc3nc(Cc4noc(C)n4)n([C@H]4CCO[C@@H](C)C4)c3c2c1 [enantiomer of Example 87, 8-methoxy-2-[(5-methyl-1,2,4-oxadiazol-3-yl)methyl]-1-[(2S,4S)-2-methyltetrahydro-2H-pyran-4-yl]-1H-imidazo[4,5-c]quinoline]",–,929 nM,2850 nM
"c1ccc2c(c1)ncc1nc(Cc3cn4ncsc4n3)n(C3CCOCC3)c12 [Example 69, 2-(imidazo[2,1-b][1,3,4]thiadiazol-6-ylmethyl)-1-(tetrahydro-2H-pyran-4-yl)-1H-imidazo[4,5-c]quinoline]",78.2 nM,82.4 nM,–
"c1ccc2c(c1)ncc1nc(Cc3noc4ccccc34)n(C3CCOCC3)c12 [Example 29, 2-(1,2-benzoxazol-3-ylmethyl)-1-(tetrahydro-2H-pyran-4-yl)-1H-imidazo[4,5-c]quinoline]",164 nM,226 nM,–
"Cc1cn2cc(Cc3nc4cnc5ccccc5c4n3C3CCOCC3)nc2s1 [Example 31, 2-[(2-methylimidazo[2,1-b][1,3]thiazol-6-yl)methyl]-1-(tetrahydro-2H-pyran-4-yl)-1H-imidazo[4,5-c]quinoline]",126 nM,151 nM,–
"Fc1ccc2ncc3nc(Cc4ccon4)n(C4CCOCC4)c3c2c1 [Example 75, 8-fluoro-2-(1,2-oxazol-3-ylmethyl)-1-(tetrahydro-2H-pyran-4-yl)-1H-imidazo[4,5-c]quinoline, trifluoroacetate salt]",130 nM,155 nM,–
"Cc1nc(Cc2nc3cnc4ccc(Cl)cc4c3n2C2CCOC(CC#N)C2)no1 (single isomer, unassigned; ent-2) [enantiomer of Example 135, [cis-4-{8-chloro-2-[(5-methyl-1,2,4-oxadiazol-3-yl)methyl]-1H-imidazo[4,5-c]quinolin-1-yl}tetrahydro-2H-pyran-2-yl]acetonitrile, ENT-2]",–,1220 nM,1450 nM
"COc1ccc2ncc3nc(Cc4cn5ncsc5n4)n([C@H]4CCO[C@@H](C)C4)c3c2c1 [enantiomer of Example 90, 2-(imidazo[2,1-b][1,3,4]thiadiazol-6-ylmethyl)-8-methoxy-1-[(2S,4S)-2-methyltetrahydro-2H-pyran-4-yl]-1H-imidazo[4,5-c]quinoline]",–,245 nM,623 nM
"O[C@@H]1CCC[C@@H](n2c(Cc3ccon3)nc3cnc4ccccc4c32)C1 (racemic) [Example 49, trans-3-[2-(1,2-oxazol-3-ylmethyl)-1H-imidazo[4,5-c]quinolin-1-yl]cyclohexanol]",152 nM,81.2 nM,–
"FC1(F)CCC(n2c(Cc3ccon3)nc3cnc4ccccc4c32)CC1 [Example 48, 1-(4,4-difluorocyclohexyl)-2-(1,2-oxazol-3-ylmethyl)-1H-imidazo[4,5-c]quinoline]",194 nM,118 nM,–
"c1ccc2c(c1)ncc1nc(Cc3ccon3)n(C3CCOCC3)c12 [Example 18, 2-(1,2-oxazol-3-ylmethyl)-1-(tetrahydro-2H-pyran-4-yl)-1H-imidazo[4,5-c]quinoline]",153 nM,250 nM,–
"C[C@@H]1C[C@H](n2c(Cc3ccon3)nc3cnc4ccc(Cl)cc4c32)CCO1 [Example 52, 8-chloro-1-[(2R,4R)-2-methyltetrahydro-2H-pyran-4-yl]-2-(1,2-oxazol-3-ylmethyl)-1H-imidazo[4,5-c]quinoline]",4.1 nM,2.7 nM,–
"F[C@@H]1CC[C@H](n2c(Cc3ccon3)nc3cnc4ccc(Br)cc4c32)C1 [Example 25, 8-bromo-1-[(1S,3R)-3-fluorocyclopentyl]-2-(1,2-oxazol-3-ylmethyl)-1H-imidazo[4,5-c]quinoline, formate salt]",56.3 nM,30.8 nM,–
"Cc1cc(Cc2nc3cnc4ccc(C#N)cc4c3n2[C@@H]2CCO[C@H](C)C2)no1 [Example 3, 2-[(5-Methyl-1,2-oxazol-3-yl)methyl]-1-[(2R,4R)-2-methyltetrahydro-2H-pyran-4-yl]-1H-imidazo[4,5-c]quinoline-8-carbonitrile]",4.9 nM,5.1 nM,–
"C[C@H]1C[C@@H](n2c(Cc3cn4ncsc4n3)nc3cnc4ccc(Cl)cc4c32)CCO1 (single isomer, unassigned) [Example 64]",279 nM,132 nM,–
"C[C@@H]1C[C@H](n2c(Cc3cscn3)nc3cnc4ccc(C#N)cc4c32)C[C@H](C)O1 [Example 61, 1-[(2R,4r,6S)-2,6-dimethyltetrahydro-2H-pyran-4-yl]-2-(1,3-thiazol-4-ylmethyl)-1H-imidazo[4,5-c]quinoline-8-carbonitrile]",181 nM,67.9 nM,–
"Cc1nc2cnc3ccc(C#N)cc3c2n1[C@H]1CCO[C@@H](C)C1 (racemic) [Example 19, 2-methyl-1-(cis-2-methyltetrahydro-2H-pyran-4-yl)-1H-imidazo[4,5-c]quinoline-8-carbonitrile]",81 nM,55.5 nM,–
"C[C@@H]1C[C@H](n2c(Cc3ccon3)nc3cnc4cccnc4c32)CCO1 [Example 68, 1-[(2R,4R)-2-methyltetrahydro-2H-pyran-4-yl]-2-(1,2-oxazol-3-ylmethyl)-1H-imidazo[4,5-c][1,5]naphthyridine]",23.6 nM,19.2 nM,–
"COc1ccc2ncc3nc(Cc4ccon4)n([C@@H]4CCO[C@H](C)C4)c3c2c1 [Example 62, 8-methoxy-1-[(2R,4R)-2-methyltetrahydro-2H-pyran-4-yl]-2-(1,2-oxazol-3-ylmethyl)-1H-imidazo[4,5-c]quinoline]",41.9 nM,12.8 nM,–
